From ChEMBL document CHEMBL5465560, “Selectivity Literature for EUbOPEN Chemogenomic Library” (2024)

Columns and labels:
[1] = target: Serine/threonine-protein kinase pim-3 (Homo sapiens) (UniProt Q86V86); conditions: at 10 µM
[2] = target: Dual specificity protein kinase CLK2 (Homo sapiens, UniProt P49760); experiment: Selectivity interaction (KinomeScan (DiscoverX)) EUB0000229b CLK2; conditions: at 10 µM
[3] = target: Serine/threonine-protein kinase PLK3 (Homo sapiens, UniProt Q9H4B4); experiment: Selectivity interaction (KinomeScan (DiscoverX)) EUB0000655a PLK3; conditions: at 10 µM
Chain of Serine/threonine-protein kinase PLK3 (Q9H4B4 whole entry, looked up): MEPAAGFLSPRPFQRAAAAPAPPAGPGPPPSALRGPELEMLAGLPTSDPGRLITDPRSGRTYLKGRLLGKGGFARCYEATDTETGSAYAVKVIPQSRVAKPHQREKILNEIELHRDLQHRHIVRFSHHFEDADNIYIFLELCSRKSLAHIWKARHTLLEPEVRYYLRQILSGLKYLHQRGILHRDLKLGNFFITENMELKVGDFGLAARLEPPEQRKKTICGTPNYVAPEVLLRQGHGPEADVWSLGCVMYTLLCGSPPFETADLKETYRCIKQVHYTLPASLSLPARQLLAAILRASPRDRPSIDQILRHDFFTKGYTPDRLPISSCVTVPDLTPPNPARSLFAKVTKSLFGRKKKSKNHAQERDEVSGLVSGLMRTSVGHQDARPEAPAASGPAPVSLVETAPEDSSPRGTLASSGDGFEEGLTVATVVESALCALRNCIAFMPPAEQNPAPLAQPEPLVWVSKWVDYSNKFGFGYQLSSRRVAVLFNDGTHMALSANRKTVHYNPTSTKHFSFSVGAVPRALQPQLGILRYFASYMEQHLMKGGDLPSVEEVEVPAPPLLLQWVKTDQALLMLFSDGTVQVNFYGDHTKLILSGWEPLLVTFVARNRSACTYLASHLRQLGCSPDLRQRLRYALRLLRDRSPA

[4] = target: Bone morphogenetic protein receptor type-1A (Homo sapiens, UniProt P36894); experiment: Selectivity interaction (KinomeScan (DiscoverX)) EUB0001079a BMPR1A; conditions: at 1 µM
[5] = target: Phosphatidylinositol 4-phosphate 5-kinase type-1 gamma (Homo sapiens) (UniProt O60331); experiment: Selectivity interaction (KinomeScan (DiscoverX)) EUB0001079a PIP5K1C; conditions: at 1 µM
Chain of Phosphatidylinositol 4-phosphate 5-kinase type-1 gamma (Homo sapiens) (O60331 whole entry): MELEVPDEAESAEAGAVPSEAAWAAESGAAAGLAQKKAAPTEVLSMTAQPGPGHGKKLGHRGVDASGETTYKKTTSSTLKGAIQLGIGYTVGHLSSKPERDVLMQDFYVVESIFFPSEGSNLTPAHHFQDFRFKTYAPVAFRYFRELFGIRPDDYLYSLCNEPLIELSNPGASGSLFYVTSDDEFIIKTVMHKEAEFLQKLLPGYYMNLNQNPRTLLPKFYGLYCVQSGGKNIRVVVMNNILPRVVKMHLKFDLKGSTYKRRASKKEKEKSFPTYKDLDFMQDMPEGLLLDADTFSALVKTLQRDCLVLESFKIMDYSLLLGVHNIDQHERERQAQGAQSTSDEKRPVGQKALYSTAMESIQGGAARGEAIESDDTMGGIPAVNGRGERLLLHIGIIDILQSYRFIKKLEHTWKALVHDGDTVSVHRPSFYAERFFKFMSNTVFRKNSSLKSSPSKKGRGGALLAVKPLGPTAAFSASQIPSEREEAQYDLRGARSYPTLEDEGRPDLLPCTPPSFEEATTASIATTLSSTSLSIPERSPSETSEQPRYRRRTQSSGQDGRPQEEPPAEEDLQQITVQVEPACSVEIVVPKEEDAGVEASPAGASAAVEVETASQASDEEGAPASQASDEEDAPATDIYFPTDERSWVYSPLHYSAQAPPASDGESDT

[6] = target: Dual specificity mitogen-activated protein kinase kinase 2 (Homo sapiens) (UniProt P36507); experiment: Selectivity interaction (KinomeScan (DiscoverX)) EUB0001079a MAP2K2; conditions: at 1 µM
Chain of Dual specificity mitogen-activated protein kinase kinase 2 (Homo sapiens) (P36507 whole entry): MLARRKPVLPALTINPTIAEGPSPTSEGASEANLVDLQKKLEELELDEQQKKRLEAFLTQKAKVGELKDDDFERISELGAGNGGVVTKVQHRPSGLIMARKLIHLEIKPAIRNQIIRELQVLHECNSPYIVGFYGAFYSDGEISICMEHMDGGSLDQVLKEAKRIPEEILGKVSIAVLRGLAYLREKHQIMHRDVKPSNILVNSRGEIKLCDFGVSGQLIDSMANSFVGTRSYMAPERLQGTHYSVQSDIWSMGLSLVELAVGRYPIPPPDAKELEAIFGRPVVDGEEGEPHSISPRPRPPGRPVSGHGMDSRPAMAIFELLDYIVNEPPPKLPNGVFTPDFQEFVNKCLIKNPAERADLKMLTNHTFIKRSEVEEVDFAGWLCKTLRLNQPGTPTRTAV

[7] = target: Mitogen-activated protein kinase 1 (Homo sapiens, UniProt P28482); experiment: Selectivity interaction (Kinase panel (33PanQinase(R) Activity Assay)) EUB0000877a MAPK1
Chain of Mitogen-activated protein kinase 1 (P28482 whole entry): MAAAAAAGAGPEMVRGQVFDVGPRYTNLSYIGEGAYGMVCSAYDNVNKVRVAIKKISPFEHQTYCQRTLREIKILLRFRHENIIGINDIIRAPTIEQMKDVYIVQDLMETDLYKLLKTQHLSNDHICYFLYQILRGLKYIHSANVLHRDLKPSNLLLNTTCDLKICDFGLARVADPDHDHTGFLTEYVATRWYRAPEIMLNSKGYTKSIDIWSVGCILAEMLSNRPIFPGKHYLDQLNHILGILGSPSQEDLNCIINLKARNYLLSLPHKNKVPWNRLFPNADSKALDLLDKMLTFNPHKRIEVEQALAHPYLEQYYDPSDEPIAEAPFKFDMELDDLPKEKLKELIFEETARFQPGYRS

[8] = target: T1, SNF-related serine/threonine-protein kinase (Homo sapiens) (UniProt Q9NRH2); conditions: at 10 µM
T1 sequence (whole entry): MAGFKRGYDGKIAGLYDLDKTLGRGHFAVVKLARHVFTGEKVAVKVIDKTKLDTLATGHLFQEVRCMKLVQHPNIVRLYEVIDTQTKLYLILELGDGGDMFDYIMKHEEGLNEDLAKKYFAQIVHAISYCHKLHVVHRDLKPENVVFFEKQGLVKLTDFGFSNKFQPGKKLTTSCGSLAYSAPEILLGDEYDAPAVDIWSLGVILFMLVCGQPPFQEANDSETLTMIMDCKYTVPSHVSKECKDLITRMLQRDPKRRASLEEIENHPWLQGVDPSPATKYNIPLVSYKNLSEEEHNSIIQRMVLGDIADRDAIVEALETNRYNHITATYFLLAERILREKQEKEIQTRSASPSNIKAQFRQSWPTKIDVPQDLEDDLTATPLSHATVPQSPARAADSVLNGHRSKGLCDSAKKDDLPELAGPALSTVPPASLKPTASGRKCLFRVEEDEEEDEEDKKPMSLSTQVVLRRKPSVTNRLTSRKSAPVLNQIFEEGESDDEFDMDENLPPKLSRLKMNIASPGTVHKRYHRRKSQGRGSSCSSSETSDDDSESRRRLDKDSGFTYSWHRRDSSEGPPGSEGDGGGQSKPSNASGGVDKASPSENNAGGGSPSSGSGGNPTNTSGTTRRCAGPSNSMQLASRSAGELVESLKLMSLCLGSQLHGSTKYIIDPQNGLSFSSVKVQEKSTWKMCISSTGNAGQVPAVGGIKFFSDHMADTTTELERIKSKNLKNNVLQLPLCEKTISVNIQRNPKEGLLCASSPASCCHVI

[9] = target: Cyclin-dependent kinase 9 (Homo sapiens, UniProt P50750); experiment: Selectivity interaction (Kinase panel (Invitrogen)) EUB0000639a CDK9; conditions: at 200 nM
Chain of Cyclin-dependent kinase 9 (P50750 whole entry, canonical isoform): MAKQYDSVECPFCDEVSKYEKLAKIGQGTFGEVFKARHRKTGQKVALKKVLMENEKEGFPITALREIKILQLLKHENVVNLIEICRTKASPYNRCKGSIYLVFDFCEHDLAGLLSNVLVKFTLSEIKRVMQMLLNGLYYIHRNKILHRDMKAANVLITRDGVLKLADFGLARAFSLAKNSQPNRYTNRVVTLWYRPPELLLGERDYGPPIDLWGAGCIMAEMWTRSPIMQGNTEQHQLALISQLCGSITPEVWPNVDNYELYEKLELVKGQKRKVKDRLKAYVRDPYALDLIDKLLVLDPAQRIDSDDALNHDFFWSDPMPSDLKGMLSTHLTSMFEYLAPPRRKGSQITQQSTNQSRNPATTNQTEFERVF

[10] = target: T2, Phosphorylase b kinase gamma catalytic chain, liver/testis isoform (Homo sapiens) (UniProt P15735); experiment: Selectivity interaction (SelectScreen profiling (Invitrogen)) EUB0000607a PHKG2; conditions: at 2 µM
T2 sequence (whole entry): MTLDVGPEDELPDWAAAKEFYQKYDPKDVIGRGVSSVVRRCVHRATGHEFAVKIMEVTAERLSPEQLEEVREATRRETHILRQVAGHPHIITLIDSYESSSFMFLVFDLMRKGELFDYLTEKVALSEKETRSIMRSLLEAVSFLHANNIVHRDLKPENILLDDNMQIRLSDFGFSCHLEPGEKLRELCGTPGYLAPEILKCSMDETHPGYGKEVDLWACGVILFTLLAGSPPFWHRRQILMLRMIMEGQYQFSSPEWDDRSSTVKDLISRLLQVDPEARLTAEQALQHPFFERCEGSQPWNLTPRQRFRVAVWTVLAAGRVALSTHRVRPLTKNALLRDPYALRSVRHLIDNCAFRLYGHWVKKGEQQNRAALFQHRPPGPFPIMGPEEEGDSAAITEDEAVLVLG

[11] = target: Ephrin type-A receptor 2 (Homo sapiens) (UniProt P29317); experiment: Selectivity interaction (KinomeScan (DiscoverX)) EUB0000607a EPHA2; conditions: at 10 µM
Chain of Ephrin type-A receptor 2 (Homo sapiens) (P29317 whole entry): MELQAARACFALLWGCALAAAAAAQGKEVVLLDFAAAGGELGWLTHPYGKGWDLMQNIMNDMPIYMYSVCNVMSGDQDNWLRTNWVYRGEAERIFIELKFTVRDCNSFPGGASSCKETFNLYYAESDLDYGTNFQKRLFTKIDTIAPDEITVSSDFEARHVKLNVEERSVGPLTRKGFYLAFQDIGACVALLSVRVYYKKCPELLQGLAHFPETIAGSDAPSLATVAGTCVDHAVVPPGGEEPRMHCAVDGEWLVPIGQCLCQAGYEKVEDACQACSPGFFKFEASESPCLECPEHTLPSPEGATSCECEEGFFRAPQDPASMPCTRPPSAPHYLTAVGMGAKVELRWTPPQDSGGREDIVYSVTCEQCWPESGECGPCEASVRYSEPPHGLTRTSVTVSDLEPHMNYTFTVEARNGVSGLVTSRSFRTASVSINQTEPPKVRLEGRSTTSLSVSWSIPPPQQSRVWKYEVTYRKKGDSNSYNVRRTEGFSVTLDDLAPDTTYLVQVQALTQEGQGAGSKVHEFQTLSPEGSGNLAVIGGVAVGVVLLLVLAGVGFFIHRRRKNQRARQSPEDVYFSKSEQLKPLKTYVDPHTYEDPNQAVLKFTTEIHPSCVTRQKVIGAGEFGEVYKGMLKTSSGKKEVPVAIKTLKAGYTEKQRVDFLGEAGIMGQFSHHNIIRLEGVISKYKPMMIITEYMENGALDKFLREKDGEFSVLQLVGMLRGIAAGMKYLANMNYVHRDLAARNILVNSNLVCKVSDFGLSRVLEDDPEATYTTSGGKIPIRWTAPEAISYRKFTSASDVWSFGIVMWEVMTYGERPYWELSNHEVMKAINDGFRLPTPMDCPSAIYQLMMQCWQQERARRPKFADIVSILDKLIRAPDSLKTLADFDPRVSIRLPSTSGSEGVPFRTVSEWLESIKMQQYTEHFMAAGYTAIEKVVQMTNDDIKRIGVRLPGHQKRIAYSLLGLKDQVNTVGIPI

[12] = target: Serine/threonine-protein kinase OSR1 (Homo sapiens) (UniProt O95747); experiment: Selectivity interaction (KinomeScan (DiscoverX)) EUB0000045b OXSR1
Chain of Serine/threonine-protein kinase OSR1 (Homo sapiens) (O95747 2-527 limits assumed): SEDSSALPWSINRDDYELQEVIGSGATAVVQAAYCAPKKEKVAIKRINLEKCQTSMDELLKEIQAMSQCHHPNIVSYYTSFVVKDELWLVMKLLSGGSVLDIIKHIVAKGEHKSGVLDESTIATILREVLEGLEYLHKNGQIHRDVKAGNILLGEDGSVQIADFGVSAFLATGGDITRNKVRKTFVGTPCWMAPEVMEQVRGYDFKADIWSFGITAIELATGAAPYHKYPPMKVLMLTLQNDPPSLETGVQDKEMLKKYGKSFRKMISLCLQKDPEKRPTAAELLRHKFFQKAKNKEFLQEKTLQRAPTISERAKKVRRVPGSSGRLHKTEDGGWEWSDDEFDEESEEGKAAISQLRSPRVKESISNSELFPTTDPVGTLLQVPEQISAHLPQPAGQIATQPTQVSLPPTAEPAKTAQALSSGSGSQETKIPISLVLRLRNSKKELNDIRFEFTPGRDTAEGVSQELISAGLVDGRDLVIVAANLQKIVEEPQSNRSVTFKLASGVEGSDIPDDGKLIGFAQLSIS

[13] = target: Ribosomal protein S6 kinase alpha-5 (Homo sapiens) (UniProt O75582); experiment: Selectivity interaction (Kinase screening (Nanosyn)) EUB0000604a RPS6KA5

Chain of Dual specificity protein kinase CLK2 (P49760 whole entry, looked up): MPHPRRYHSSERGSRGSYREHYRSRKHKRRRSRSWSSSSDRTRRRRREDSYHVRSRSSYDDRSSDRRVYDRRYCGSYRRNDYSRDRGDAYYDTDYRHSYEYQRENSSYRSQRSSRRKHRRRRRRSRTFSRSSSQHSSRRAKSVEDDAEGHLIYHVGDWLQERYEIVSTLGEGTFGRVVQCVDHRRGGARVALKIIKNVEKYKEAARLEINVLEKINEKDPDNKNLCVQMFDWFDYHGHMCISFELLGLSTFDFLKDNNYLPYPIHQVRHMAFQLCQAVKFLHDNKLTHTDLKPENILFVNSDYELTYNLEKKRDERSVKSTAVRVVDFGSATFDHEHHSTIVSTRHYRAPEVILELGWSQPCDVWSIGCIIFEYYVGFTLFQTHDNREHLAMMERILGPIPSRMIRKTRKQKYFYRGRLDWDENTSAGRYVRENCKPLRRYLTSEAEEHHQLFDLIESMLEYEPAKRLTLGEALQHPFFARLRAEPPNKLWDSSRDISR

Work on CCN(CC)CCCCNc1ncc2cc(-c3cc(OC)cc(OC)c3)c(NC(=O)NC(C)(C)C)nc2n1 yielded a % of control [1] of 100%.

COc1cc(N(C)c2ccnc3ccc(C(F)(F)F)cc23)cc(OC)c1OC was tested, and the % binding [2] was 85%.

In the case of CN(C)CCOc1ccc(-c2nc(-c3ccncc3)c(-c3ccc4c(c3)CC/C4=N\O)[nH]2)cc1, the % of control [3] is reported as 94%.

Nc1cnc(N2CCc3cc(S(=O)(=O)Nc4c(F)cc(Cl)cc4F)cc(N4CCCC4=O)c32)nc1 [TP-020n] gave a % of control [4] of 91%, a % of control [5] of 75% and a % of control [6] of 92%.

For CCC(=O)N1CC[C@H](Nc2ncnc3c2CN(c2cnc(OC)c(C(F)(F)F)c2)CC3)C1 [LENIOLISIB], the IC50 [7] was greater than 10 µM.

Cc1cc([C@@H](C)Nc2ccccc2C(=O)O)c2nc(N3CCOCC3)cc(=O)n2c1 [AZD-6482] showed a % of control [8] of 89%.

In the case of CC[C@@H]1[C@H](F)C(=O)N[C@@H]1COc1nccc2cc(C(N)=O)c(OC)cc12 [ZIMLOVISERTIB], the % of inhibition [9] is reported as 4.37%.

In the case of CNC(=O)Nc1ccc(-c2nc(N3CC4CCC(C3)O4)c3cnn(C4CCC5(CC4)OCCO5)c3n2)cc1, the % of inhibition [10] is reported as 12% and the % of control [11] is reported as 81%.

With C=CC(=O)Nc1cc(-n2c(=O)ccc3cnc4ccc(-c5ccc(NS(C)(=O)=O)cc5)cc4c32)ccc1C the % of control ([12]; at 1 µM) was 100% and the % of control ([12]; at 10 µM) was 94%.

Work on Cc1cnc(Nc2ccc(F)cc2Cl)nc1-c1c[nH]c(C(=O)N[C@H](CO)c2cccc(Cl)c2)c1 yielded a % of inhibition [13] of 7%.
